From PMC7862923 (Nature chemical biology, 2020)

Assays:
Assay type in all cases: cell-based
BRAF(V600E) = BRAF(V600E) (Homo sapiens, UniProt P15056, V600E); experiment: Immunoblot of BRAF protein levels in A375 cells; details: 24 h
pERK = pERK AlphaLISA in MeWo cells
BRAF(WT) = BRAF(WT) (Homo sapiens, UniProt P15056); experiment: Immunoblot of BRAF levels in HCT116 cells; details: KRAS(G13D), 24h
HCT116 cell line = experiment: Proliferation and pathway signaling; details: HCT116, KRAS(G13D)
A375 cells = experiment: RNAseq transcriptome analysis; details: 200nM, 20 hours
pMEK and pERK levels = experiment: Pathway signaling; details: A375 cells, 100 nM, 24 h

BRAF(V600E), sequence (P15056 whole entry V600E): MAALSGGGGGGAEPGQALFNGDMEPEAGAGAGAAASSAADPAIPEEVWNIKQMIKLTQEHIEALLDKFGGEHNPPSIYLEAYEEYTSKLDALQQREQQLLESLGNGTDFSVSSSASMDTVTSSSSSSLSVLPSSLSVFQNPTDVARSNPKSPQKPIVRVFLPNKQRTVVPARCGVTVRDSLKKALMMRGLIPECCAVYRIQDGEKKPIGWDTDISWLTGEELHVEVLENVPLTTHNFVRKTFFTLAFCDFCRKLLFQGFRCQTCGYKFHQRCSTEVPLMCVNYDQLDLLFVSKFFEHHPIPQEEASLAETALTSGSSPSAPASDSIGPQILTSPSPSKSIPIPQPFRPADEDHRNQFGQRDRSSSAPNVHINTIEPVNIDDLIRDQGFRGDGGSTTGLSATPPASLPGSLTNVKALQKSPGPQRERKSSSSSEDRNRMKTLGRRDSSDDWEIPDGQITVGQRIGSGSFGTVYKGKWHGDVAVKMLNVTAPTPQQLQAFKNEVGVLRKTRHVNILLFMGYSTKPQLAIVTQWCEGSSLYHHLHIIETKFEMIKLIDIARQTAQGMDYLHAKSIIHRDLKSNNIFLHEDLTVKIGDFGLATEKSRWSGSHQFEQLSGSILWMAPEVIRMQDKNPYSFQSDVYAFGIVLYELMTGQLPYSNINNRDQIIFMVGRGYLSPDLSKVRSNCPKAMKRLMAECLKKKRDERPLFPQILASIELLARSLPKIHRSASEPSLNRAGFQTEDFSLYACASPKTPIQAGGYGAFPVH
BRAF(WT), sequence (P15056 whole entry): as the sequence (P15056 whole entry V600E) above, with E600V counted along it

Row | SMILES | effect on BRAF protein levels (degrader function) (BRAF(V600E)) | effect on ERK activation (pERK) (pERK) | reduction of BRAF(V600E) protein levels (BRAF(V600E); 100 nM) | ability to reduce BRAF levels (BRAF(WT)) | inhibiting cell proliferation and pathway signaling (HCT116 cell line) | number of genes altered (differentially expressed) (A375 cells) | repression of pathway signaling (pMEK and pERK levels)
1 | Nc1cccc2c1C(=O)N(C1CCC(=O)NC1=O)C2=O (stereo not shown) [pomalidomide] | failed to reduce BRAF protein levels | – | – | – | – | – | –
2 | CCCS(=O)(=O)Nc1ccc(F)c(-n2cc(-c3cncnc3)c3nc(N(C)C4CCN(CC)CC4)ccc32)c1F [BI 882370*] | – | induced paradoxical ERK activation | no effect on BRAF(V600E) levels | no ability to reduce BRAF levels | equally ineffective | 195 | comparable to P4B and P5B
